Measured values taken from patent publication US20240115654A1, “INTRAVENOUS ADMINISTRATION OF ENGINEERED ANTIMICROBIAL AMPHIPHILIC PEPTIDES” (priority 2021, published 2024).
Peptide text beside a SMILES is read from it.

Excerpt: All subjects who met eligibility criteria were confined to the clinical research unit from […] through Day 3. At admission, physical examination, vital signs, 12 lead ECG and weight were obtained, medical and medication history were updated if necessary, safety blood tests (hematology and chemistry), urinalysis, urine drug screen and an alcohol breath test were repeated and a urine pregnancy test was done for women of childbearing potential.
At each dose level, there were 2 sentinel subjects, (1 active, 1 placebo), who were dosed at least 48 hours in advance of the other subjects in their respective group. Following review of safety data, including physical examination, vital signs, and review of adverse events from the first 2 subjects, enrolment in the cohort continued.
A 12-lead ECG was performed on Day 1, within 60 minutes of infusion start (in triplicate), mid-way through the infusion, at the completion of the infusion, 30 minutes after completion of the infusion and at various timepoints following the end of the infusion.
Vital signs were recorded within 60 minutes pre-dose, at the mid-point of the infusion and post dose vitals were assessed at completion of the infusion, 0.5, 1, 2, 3, 4, 6, 9, 12, 24 and 48 hours post dose, after at least 3 minutes of rest in supine position.
Subjects returned to the study center 7 days after dosing, for the termination visit. A full physical examination, vital signs and weight were obtained, concomitant medications were updated if necessary, safety blood specimens (haematology and chemistry, PT and aPTT) and urine were collected for urinalysis and urine drug screening. A serum pregnancy test was done for women of childbearing potential and a 12-lead ECG was performed.
In this study dose limiting toxicity (DLT) was defined as any drug related ≥Grade 3 AEs occurring despite optimal therapeutic interventions (which included but were not limited to allergic/hypersensitivity reactions, dermatological reactions/infusion site reactions, haematological toxicities such as neutropenia, thrombocytopenia and anaemia and clinical chemistry abnormalities) experienced up to Day 7 (Termination Visit).
(§1) All subjects who received any amount of study drug were included in the safety analysis (Safety population).
The study was a double blinded, randomized, placebo-controlled study. The placebo administered was 0.9% sodium chloride.
On Day 1 (day of dosing), subjects were randomly assigned either peptide IV or Placebo IV. At each dose level, there were 2 sentinel subjects, (1 active, 1 placebo), who were dosed at least 48 hours in advance of the other subjects in their respective group. Following review of safety data, including physical examination, vital signs, and review of adverse events from the first 2 subjects, enrolment in the cohort continued. All subjects who met eligibility criteria were confined to the clinical research unit from Day −2 through Day 3. At admission, physical examination, vital signs, 12 lead ECG and weight were obtained, medical and medication history were updated if necessary, safety blood tests (hematology and chemistry), urinalysis, urine drug screen and an alcohol breath test were repeated and a urine pregnancy test was done for women of childbearing potential.
as §1

CC(C)[C@H](NC(=O)[C@H](Cc1c[nH]c2ccccc12)NC(=O)[C@H](CCCNC(=N)N)NC(=O)[C@H](CCCNC(=N)N)NC(=O)[C@@H](NC(=O)[C@@H](NC(=O)[C@H](CCCNC(=N)N)NC(=O)[C@@H](NC(=O)[C@@H](NC(=O)[C@H](CCCNC(=N)N)NC(=O)[C@H](CCCNC(=N)N)NC(=O)[C@H](Cc1c[nH]c2ccccc12)NC(=O)[C@@H](NC(=O)[C@H](CCCNC(=N)N)NC(=O)[C@H](CCCNC(=N)N)NC(=O)[C@@H](NC(=O)[C@H](CCCNC(=N)N)NC(=O)[C@H](CCCNC(=N)N)NC(=O)[C@@H](NC(=O)[C@H](Cc1c[nH]c2ccccc12)NC(=O)[C@H](CCCNC(=N)N)NC(=O)[C@@H](N)CCCNC(=N)N)C(C)C)C(C)C)C(C)C)C(C)C)C(C)C)C(C)C)C(C)C)C(=O)N[C@@H](CCCNC(=N)N)C(=O)N[C@@H](CCCNC(=N)N)C(N)=O [SEQ ID NO: 1] (H-RRWVRRVRRVWRRVVRVVRRWVRR-NH2)
30 (85.7%): TEAE Severity Grade 1, n (%) (Pooled active cohorts (N = 35))
3: Treatment-related TEAE: Gastrointestinal Disorders, occurrences m (Pooled SEQ ID NO: 1 (N = 35)) | Treatment-related TEAE: Infusion site pain, occurrences m (Pooled SEQ ID NO: 1 (N = 35)) | Treatment-related TEAE: Phlebitis, occurrences m (Pooled SEQ ID NO: 1 (N = 35))
1 (20.0%): Treatment-related TEAE: Infusion related reaction, participants n (%) (Pooled SEQ ID NO: 1 (N = 35)) | Treatment-related TEAE: Injury, Poisoning, and Procedural Complications, participants n (%) (Pooled SEQ ID NO: 1 (N = 35))
safe and well tolerated: overall safety and tolerability (healthy volunteers, 0.05 to 1 mg/kg, drug concentration below 0.50 mg/mL and dose rate below 25 mg/hour)
1 (2.9%): Treatment-related TEAE: Abdominal distension, participants n (%) (Pooled SEQ ID NO: 1 (N = 35)) | Treatment-related TEAE: Diarrhea, participants n (%) (Pooled SEQ ID NO: 1 (N = 35)) | Treatment-related TEAE: Dizziness, participants n (%) (Pooled SEQ ID NO: 1 (N = 35)) | Treatment-related TEAE: Headache, participants n (%) (Pooled SEQ ID NO: 1 (N = 35)) | Treatment-related TEAE: Infusion site discomfort, participants n (%) (Pooled SEQ ID NO: 1 (N = 35)) | Treatment-related TEAE: Infusion site swelling, participants n (%) (Pooled SEQ ID NO: 1 (N = 35)) | Treatment-related TEAE: Macule, participants n (%) (Pooled SEQ ID NO: 1 (N = 35)) | Treatment-related TEAE: Musculoskeletal and Connective Tissue Disorders, participants n (%) (Pooled SEQ ID NO: 1 (N = 35)) | Treatment-related TEAE: Myalgia, participants n (%) (Pooled SEQ ID NO: 1 (N = 35)) | Treatment-related TEAE: Orthostatic hypotension, participants n (%) (Pooled SEQ ID NO: 1 (N = 35)) | Treatment-related TEAE: Skin and Subcutaneous Tissue Disorders, participants n (%) (Pooled SEQ ID NO: 1 (N = 35)) | Treatment-related TEAE: Vessel puncture site erythema, participants n (%) (Pooled SEQ ID NO: 1 (N = 35)) | Treatment-related TEAE: Vomiting, participants n (%) (Pooled SEQ ID NO: 1 (N = 35))
23: One Related TEAE, m (Pooled active cohorts (N = 35))
4: Treatment-related TEAE: Infusion site reaction, occurrences m (Pooled SEQ ID NO: 1 (N = 35)) | Treatment-related TEAE: Vascular Disorders, occurrences m (Pooled SEQ ID NO: 1 (N = 35)) | One TEAE Leading to Study Drug Discontinuation, m (Pooled active cohorts (N = 35))
11: Treatment-related TEAE: General Disorders and Administration Site Conditions, occurrences m (Pooled SEQ ID NO: 1 (N = 35))
72: One TEAE, m (Pooled active cohorts (N = 35))
2 (5.7%): Treatment-related TEAE: Gastrointestinal Disorders, participants n (%) (Pooled SEQ ID NO: 1 (N = 35)) | Number of Participants Reporting at least: One TEAE Leading to Study Drug Discontinuation, n (%) (Pooled active cohorts (N = 35))
3 (8.6%): Treatment-related TEAE: Infusion site pain, participants n (%) (Pooled SEQ ID NO: 1 (N = 35)) | Treatment-related TEAE: Phlebitis, participants n (%) (Pooled SEQ ID NO: 1 (N = 35)) | Treatment-related TEAE: Vascular Disorders, participants n (%) (Pooled SEQ ID NO: 1 (N = 35))
5 (14.3%): TEAE Severity Grade 2, n (%) (Pooled active cohorts (N = 35))
8: TEAE Severity Grade 2, m (Pooled active cohorts (N = 35))
0: TEAE severity Grade 5, participants n (%) (Pooled SEQ ID NO: 1 (N = 35)) | Treatment-related TEAE: Blood and Lymphatic System Disorders, participants n (%) (Pooled SEQ ID NO: 1 (N = 35)) | Treatment-related TEAE: Constipation, participants n (%) (Pooled SEQ ID NO: 1 (N = 35)) | Treatment-related TEAE: Feeling hot, participants n (%) (Pooled SEQ ID NO: 1 (N = 35)) | Treatment-related TEAE: Oropharyngeal pain, participants n (%) (Pooled SEQ ID NO: 1 (N = 35)) | Treatment-related TEAE: Pain in extremity, participants n (%) (Pooled SEQ ID NO: 1 (N = 35)) | Treatment-related TEAE: Respiratory, Thoracic, and Mediastinal disorders, participants n (%) (Pooled SEQ ID NO: 1 (N = 35)) | Treatment-related TEAE: Thrombocytopenia, participants n (%) (Pooled SEQ ID NO: 1 (N = 35)) | Number of Participants Reporting at least: Onc TEAE Leading to Study Withdrawal, n (%) (Pooled active cohorts (N = 35)) | Number of Participants Reporting at least: One Dose-Limiting Toxicity, n (%) (Pooled active cohorts (N = 35)) | Number of Participants Reporting at least: One Serious TEAE, n (%) (Pooled active cohorts (N = 35)) | Number of Participants Reporting at least: One TEAE with Common Terminology Criteria for Adverse Events (CTCAE) Toxicity ≥ Grade 3, n (%) (Pooled active cohorts (N = 35))
13 (37.1%): Number of Participants Reporting at least: One Related TEAE, n (%) (Pooled active cohorts (N = 35))
64: TEAE Severity Grade 1, m (Pooled active cohorts (N = 35))
1: Treatment-related TEAE: Abdominal distension, occurrences m (Pooled SEQ ID NO: 1 (N = 35)) | Treatment-related TEAE: Diarrhea, occurrences m (Pooled SEQ ID NO: 1 (N = 35)) | Treatment-related TEAE: Dizziness, occurrences m (Pooled SEQ ID NO: 1 (N = 35)) | Treatment-related TEAE: Headache, occurrences m (Pooled SEQ ID NO: 1 (N = 35)) | Treatment-related TEAE: Infusion related reaction, occurrences m (Pooled SEQ ID NO: 1 (N = 35)) | Treatment-related TEAE: Infusion site discomfort, occurrences m (Pooled SEQ ID NO: 1 (N = 35)) | Treatment-related TEAE: Infusion site swelling, occurrences m (Pooled SEQ ID NO: 1 (N = 35)) | Treatment-related TEAE: Injury, Poisoning, and Procedural Complications, occurrences m (Pooled SEQ ID NO: 1 (N = 35)) | Treatment-related TEAE: Macule, occurrences m (Pooled SEQ ID NO: 1 (N = 35)) | Treatment-related TEAE: Musculoskeletal and Connective Tissue Disorders, occurrences m (Pooled SEQ ID NO: 1 (N = 35)) | Treatment-related TEAE: Myalgia, occurrences m (Pooled SEQ ID NO: 1 (N = 35)) | Treatment-related TEAE: Orthostatic hypotension, occurrences m (Pooled SEQ ID NO: 1 (N = 35)) | Treatment-related TEAE: Skin and Subcutaneous Tissue Disorders, occurrences m (Pooled SEQ ID NO: 1 (N = 35)) | Treatment-related TEAE: Vessel puncture site erythema, occurrences m (Pooled SEQ ID NO: 1 (N = 35)) | Treatment-related TEAE: Vessel puncture site pain, occurrences m (Pooled SEQ ID NO: 1 (N = 35)) | Treatment-related TEAE: Vomiting, occurrences m (Pooled SEQ ID NO: 1 (N = 35))
4 (11.4%): Treatment-related TEAE: Infusion site reaction, participants n (%) (Pooled SEQ ID NO: 1 (N = 35))
31 (88.6%): Number of Participants Reporting at least: One TEAE, n (%) (Pooled active cohorts (N = 35))
10 (28.6%): Treatment-related TEAE: General Disorders and Administration Site Conditions, participants n (%) (Pooled SEQ ID NO: 1 (N = 35))
3 (2.9%): Treatment-related TEAE: Vessel puncture site pain, participants n (%) (Pooled SEQ ID NO: 1 (N = 35))
more severe: severity of IRRs in relation to maximum dose rate (maximum dose rate higher (>25 mg/hr))
